Data reported in patent publication US5691135A, “Immunoglobulin superantigen binding to gp 120 from HIV” (The Regents of the University of California, priority 1994, dated 1997).
“And” between values parts separate entries of the source, which are not always exact repeats. Identical values can stand only once. “Also recorded” adds a separate entry of the source.

Legend:
[1] = test system: VH3 IgM binding to gp120
[2] = test system: panel of Ig-SAg binding antibodies (polyclonal IgM plus four monoclonal IgM) binding to gp120; design: species or system human
[3] = test system: monoclonal IgM VIN binding to gp120; design: species or system human; details: gp120 elisa
[4] = test system: monoclonal IgM HEA binding to gp120; design: species or system human; details: for RESIDUAL BINDING TO gp120 (% OF CONTROL), 1.0 μM PEPTIDE / RESIDUAL BINDING TO gp120 (% OF CONTROL), 10.0 μM PEPTIDE: gp120 elisa
[5] = test system: monoclonal IgM VNG binding to gp120; design: species or system human; details: for RESIDUAL BINDING TO gp120 (% OF CONTROL), 1.0 μM PEPTIDE / RESIDUAL BINDING TO gp120 (% OF CONTROL), 10.0 μM PEPTIDE: gp120 elisa
[6] = test system: polyclonal serum IgM binding to gp120 from HIV-1SF2; design: species or system human; details: for RESIDUAL BINDING TO gp120 (% OF CONTROL), 1.0 μM PEPTIDE / RESIDUAL BINDING TO gp120 (% OF CONTROL), 10.0 μM PEPTIDE: gp120 elisa
[7] = test system: monoclonal IgM RSJ binding to gp120; design: species or system human; details: gp120 elisa
[8] = test system: tonsil T-cells (CD19-, CD3+); format: cell-based, human
[9] = test system: CD19+ tonsil B-cells; format: cell-based, human

Row | Substance | RESIDUAL BINDING TO gp120 (% OF CONTROL), 1.0 μM PEPTIDE [3] | RESIDUAL BINDING TO gp120 (% OF CONTROL), 10.0 μM PEPTIDE [3] | RESIDUAL BINDING TO gp120 (% OF CONTROL), 1.0 μM PEPTIDE [4] | RESIDUAL BINDING TO gp120 (% OF CONTROL), 10.0 μM PEPTIDE [4] | RESIDUAL BINDING TO gp120 (% OF CONTROL), 1.0 μM PEPTIDE [5] | RESIDUAL BINDING TO gp120 (% OF CONTROL), 10.0 μM PEPTIDE [5] | RESIDUAL BINDING TO gp120 (% OF CONTROL), 1.0 μM PEPTIDE [6] | RESIDUAL BINDING TO gp120 (% OF CONTROL), 10.0 μM PEPTIDE [6] | RESIDUAL BINDING TO gp120 (% OF CONTROL), 1.0 μM PEPTIDE [7] | RESIDUAL BINDING TO gp120 (% OF CONTROL), 10.0 μM PEPTIDE [7] | other results
1 | DTEVHNVWATQACVPTDPNP [Peptide 1925, gp160 peptide 61-81, HIV-1 MN] |  |  |  |  |  |  |  |  |  |  | inhibition of gp120 binding to VH3 IgM [1]: neither actin nor the 1925 peptide inhibited
2 | thyroglobulin |  |  |  |  |  |  |  |  |  |  | inhibition of gp120 binding to VH3 IgM [1]: inhibited gp120 binding to VH3 IgM
3 | LKCNDKKFSGKGSCKNVSTV [Peptide 1959, gp160 peptide 231-250, HIV-1 MN] | 12.6 ± 1.0 % OF CONTROL | 8.0 ± 0.2 % OF CONTROL | 28.3 ± 3.7 % OF CONTROL | 8.4 ± 5.3 % OF CONTROL | 48.7 ± 0.9 % OF CONTROL | 13.7 ± 3.6 % OF CONTROL | 37.0 ± 4.4 % OF CONTROL | 16.8 ± 8.4 % OF CONTROL | 40.5 ± 8.2 % OF CONTROL | 17.2 ± 1.7 % OF CONTROL | peptide binding across all Ig tested [2]: bound to all Ig tested
4 | EGTIKGGEMKNCSFNITTSI [Peptide 1934, gp160 peptide 151-170, HIV-1 MN] |  |  |  |  |  |  |  |  | 13.9 ± 0.3 % OF CONTROL |  | 
5 | RQAHCNISRAKWNDTLRQIV [Peptide 1988, gp160 peptide 331-350, HIV-1 MN] | 12.4 ± 0.6 % OF CONTROL | 12.2 ± 7.8 % OF CONTROL | 92.8 ± 0.4 % OF CONTROL | 40.8 ± 6.1 % OF CONTROL |  |  | 39.9 ± 3.6 % OF CONTROL | 23.7 ± 9.7 % OF CONTROL | 20.3 ± 1.5 % OF CONTROL | 13.5 ± 0.4 % OF CONTROL | 
6 | TKAKRRVVQREKRAAIGALP [Peptide 2015, gp160 peptide 501-520, HIV-1 MN] | 23.7 ± 3.4 % OF CONTROL | 6.5 ± 2.0 % OF CONTROL |  |  | 83.0 ± 6.3 % OF CONTROL | 37.7 ± 2.0 % OF CONTROL | 44.5 ± 5.4 % OF CONTROL | 29.3 ± 5.1 % OF CONTROL |  |  | 
7 | MRVKGIRRNYQHWWGWGTM [Peptide 1919, gp160 peptide, amino acids 1-20, HIV-1 MN] | 28.1 ± 5.0 % OF CONTROL | 14.8 ± 2.0 % OF CONTROL | 56.1 ± 3.6 % OF CONTROL | 15.1 ± 2.1 % OF CONTROL | 46.4 ± 20.2 % OF CONTROL | 3.3 ± 1.7 % OF CONTROL | 17.6 ± 0.2 % OF CONTROL |  | 11.1 ± 1.5 % OF CONTROL | 1.3 ± 0.1 % OF CONTROL | inhibition of gp120 binding to VH3 IgM [1]: inhibited gp120 binding to VH3 IgM; inhibition of IgM binding to gp120 by shared peptides [2]: abolished the binding of IgM to gp120; peptide binding across all Ig tested [2]: bound to all Ig tested; also recorded: bound to all of the monoclonal antibodies as well as to polyclonal serum IgM
8 | YTTKNIIGTIRQAHCNISRA [Peptide 1987, gp160 peptide 321-340, HIV-1 MN] |  |  |  |  |  |  |  |  | 56.8 ± 0.3 % OF CONTROL | 42.2 ± 3.4 % OF CONTROL | 
9 | actin |  |  |  |  |  |  |  |  |  |  | inhibition of gp120 binding to VH3 IgM [1]: neither actin nor the 1925 peptide inhibited
10 | KWNDTLRQIVSKLKEQFKNK [Peptide 1989, gp160 peptide 341-360, HIV-1 MN] | 96.6 ± 6.1 % OF CONTROL | 13.4 ± 1.8 % OF CONTROL | 98.3 ± 0.1 % OF CONTROL | 26.2 ± 0.8 % OF CONTROL |  |  | 88.5 ± 3.6 % OF CONTROL | 24.6 ± 6.6 % OF CONTROL |  |  | 
11 | gp120: recombinant gp120 from HIV-1SF2 expressed in CHO cells |  |  |  |  |  |  |  |  |  |  | fraction of T-cell population (CD19-) that bound gp120 [8]: 68% and 65%; fraction of B-cell population (CD19+) that bound gp120 [9]: 4% and 3-6%
12 | KQIINMWQEVGKAMYAPPIE [Peptide 2007, gp160 peptide 421-440, HIV-1 MN] | 69.8 ± 4.2 % OF CONTROL | 21.2 ± 1.2 % OF CONTROL | 56.2 ± 4.7 % OF CONTROL | 10.3 ± 0.5 % OF CONTROL |  |  | 59.1 ± 0.8 % OF CONTROL | 19.8 ± 5.4 % OF CONTROL | 24.1 ± 0.1 % OF CONTROL | 3.1 ± 0.7 % OF CONTROL | 
13 | CTRPNYNKRKRIHIGPGRAF [Peptide 1985, gp160 peptide 301-320, HIV-1 MN] |  |  |  |  | 27.4 ± 0.5 % OF CONTROL | 24.2 ± 0.1 % OF CONTROL |  |  |  |  | binding of VNG to peptide [5]: bound; inhibition of polyclonal serum IgM binding to gp120 [6]: does not inhibit
14 | CRIKQIIMWQKVGKAMYAPPISG [Peptide 1589, gp160 peptide 418-441, HIV-1 IIIB] |  |  |  |  |  |  |  |  |  |  | inhibition of HEA binding to gp120 [4]: inhibited the binding of HEA to gp120
15 | GKAMYAPPIEGQIRCSSNIT [Peptide 2008, gp160 peptide 431-450, HIV-1 MN] | 108 ± 4.3 % OF CONTROL | 15.7 ± 1.7 % OF CONTROL |  |  |  |  |  |  |  |  | 
16 | KGSCKNVSTVQCTHGIRPVV [Peptide 1960, gp160 peptide 241-260, HIV-1 MN] | 6.2 ± 1.3 % OF CONTROL | 5.8 ± 1.3 % OF CONTROL | 11.3 ± 2.5 % OF CONTROL | 6.2 ± 3.0 % OF CONTROL | 58.1 ± 0 % OF CONTROL | 32.3 ± 7.1 % OF CONTROL | 19.2 ± 1.0 % OF CONTROL | 11.7 ± 2.3 % OF CONTROL | 10.2 ± 2.4 % OF CONTROL | 4.2 ± 5.0 % OF CONTROL | peptide binding across all Ig tested [2]: bound to all Ig tested
